Source: patent publication US20060052600A1, “Amino-functional chalcones” (priority 2002, published 2006)
Converted amounts (≈) assume the structure as drawn. Read-outs that look alike come from different tables or passages of the source.

Experiments:
[1] = test system: S. aureus ATCC29213; experiment: Killing curve determination (time-kill curve); assay type: cell-based, Staphylococcus aureus; details: for bactericidal or bacteriostatic action (time-kill curve): CFU per ml at concentrations above the MIC; for MIC: S. aureus ATCC29213
[2] = test system: Eschericia coli ESS; experiment: MIC determination in broth microdilution assay
[3] = test system: Plasmodium falciparum 3D7; experiment: Plasmodium falciparum assay; assay type: cell-based
[4] = Determination of solubility; assay type: physicochemical
Procedure: Solubility of the compounds was determined by preparing a saturated solution of compound in 0.3 M phosphate buffer (pH 7.4±0.3) in a brown glass tube. The suspensions were rotated slowly for 24 hours. Aliquots were centrifuged for 10 minutes at 14.000 rpm and supernatants were diluted in 40% (v/v) acetonitrile in water prior to HPLC analysis. Concentrations of analytes were quantified against a standard curve and used as term of solubility.
The HPLC-UV method used for the assessment of solubility is the same as used in the in vitro metabolism assay.

[5] = test system: Staphylococcus intermedius #2357 (clinical isolate); experiment: MIC determination in broth microdilution assay
[6] = test system: Enterococcus faecalis ATCC29212; experiment: MIC determination in broth microdilution assay
[7] = test system: Streptococcus pneumoniae #998 (clinical isolate); experiment: MIC determination in broth microdilution assay
[8] = test system: L. major promastigotes; experiment: Leishmania promastigote assay; details: read-out: IC50, effect on L. major
[9] = test system: Staphylococcus aureus ATCC33591 (resistant to methicillin); experiment: MIC determination in broth microdilution assay
[10] = test system: DHODH (dihydroorotate dehydrogenase); experiment: DHODH assay; assay type: biochemical; details: test concentration not given
[11] = test system: Staphylococcus aureus ATCC29213; experiment: MIC determination in broth microdilution assay
[12] = test system: Enterococcus faecium #17501 (vancomycin-resistant clinical isolate); experiment: MIC determination in broth microdilution assay
[13] = Determination of metabolic stability (liver microsomes); assay type: in vitro ADME, rat; details: for Metabolic turn-over (rat) in vitro: 20 μM, 15 min, 37° C.
Procedure: Samples were incubated for 15 min at 37° C. and the reactions were terminated by addition of equal volumes of acetonitrile. Blank incubations were performed at the same concentration but without addition of microsomes. Both blank and microsome-containing samples were made in […] of three. […] The fraction of compound metabolised during the 15 min of incubation was determined by comparison of blank and microsome-containing samples using a Waters Alliance 2690 separation module and Waters 996 PDA-detector (Waters. […] This was followed by a 5 minutes linear gradient to initial conditions, which were maintained for 5 min. The flow rate was 0.20 ml/min and injection volume 10 μl.

[14] = Pharmacokinetic studies; assay type: in vivo, mice
Source text: Samples of serum were taken at defined timepoints.
The supernatant was used for the analysis.

[15] = test system: panel of non-fastidious bacteria (Gram-positive pathogens and Eschericia coli); experiment: Activity against non-fastidious bacteria (panel, results in words)
[16] = test system: Eschericia coli ATCC25922; experiment: MIC determination in broth microdilution assay
[17] = test system: panel of anaerobic bacteria (Bacteroides fragilis, Clostridium perfringens, Clostridium difficele); assay type: cell-based; details: single concentration 100 μM
[18] = test system: Plasmodium berghei K173; experiment: Multiple intra venous administration in Plasmodium berghei K173 infected NMRI female mice; assay type: in vivo; details: FIG. 7
Procedure: The doses stated were administered intra venously as solutions in a suitable vehicle.

[19] = test system: Plasmodium berghei K173; experiment: Multiple oral administrations in Plasmodium berghei K173 infected NMRI female mice; assay type: in vivo; details: FIG. 8
[20] = test system: Plasmodium falciparum K1(Cq-res); experiment: Plasmodium falciparum assay, resistant strain; assay type: cell-based; details: K1, read-out: Plasmodium falciparum IC50, K1(Cq-res)
[21] = test system: Plasmodium falciparum 7G8(Cq-res); experiment: Plasmodium falciparum assay, resistant strain; assay type: cell-based; details: 7G8, read-out: Plasmodium falciparum IC50, 7G8(Cq-res)
[22] = test system: Plasmodium falciparum DD2 (Cq-res); experiment: Plasmodium falciparum assay, resistant strain; assay type: cell-based; details: DD2, read-out: Plasmodium falciparum IC50, DD2 (Cq-res)
[23] = Table 2, read-out: IC50, activity against Plasmodium falciparum 3D7

SMILES: CCCCN(CCCC)c1ccc(/C=C/C(=O)c2ccccc2CN2CCN(C)CC2)cc1 [A031, (E)-3-(4-Dibutylamino-phenyl)-1-[2-(4-methyl-piperazin-1-ylmethyl)-phenyl]-propenone]
- bactericidal or bacteriostatic action (time-kill curve) [1]: bactericidal
- MIC [1]: 9.4 µM (≈ 4.21 µg/mL)
- activity against the ESS strain of E. coli [2]: considerable activity

SMILES: CN(C)Cc1cccc(/C=C/C(=O)c2ccccc2CN(C)C)c1 [A066, (E)-3-(3-Dimethylaminomethyl-phenyl)-1-(2-dimethylaminomethyl-phenyl)-propenone]
- IC50 [3, 23]: 900 nM
- Solubility in aqueous buffer at pH 7.4 ([4]; 0.3 M phosphate buffer, 24 hours): 7.4 mg/ml

SMILES: C=CC(C)(C)c1cc(/C=C/C(=O)c2ccc(O)cc2)c(OC)cc1O [LicA, Licochalcone A, reference compound]
- MIC, C: Staphylococcus intermedius #2357 [5]: 37.5 µM (≈ 12.7 µg/mL)
- MIC, D: Enterococcus faecalis ATCC29212 [6]: 37.5 µM (≈ 12.7 µg/mL)
- MIC, F: Streptococcus pneumoniae #998 [7]: 75.0 µM (≈ 25.4 µg/mL)
- IC50 [8]: 4600 nM
- MIC, B: Staphylococcus aureus ATCC33591 [9]: 37.5 µM (≈ 12.7 µg/mL)
- Inhibition of DHODH [10]: 25%
- MIC, A: Staphylococcus aureus ATCC29213 [11]: 37.5 µM (≈ 12.7 µg/mL)
- MIC, E: Enterococcus faecium #17501 [12]: 37.5 µM (≈ 12.7 µg/mL)
- metabolic turn-over in vitro [13]: 100%
- Metabolic turn-over (rat) in vitro [13]: 100%
- t½ in vivo ([14]; in vivo, species not given): 10 min
- IC50 [3, 23]: 6400 nM
- MIC, H: Eschericia coli ESS [2]: 300.0 µM (≈ 102 µg/mL)
- aqueous solubility ([4]; pH 7.4): approximately 0.01 mg/ml
- activity against Gram-negative bacterium Eschericia coli [15]: only modest or no activity
- activity against common pathogenic Gram-positive non-fastidious bacteria ([15]; also against antibiotic resistant bacteria): moderate bactericidal activity

SMILES: COc1ccc(C(=O)/C=C/c2ccccc2)cc1 [4′MC, 4′methoxy chalcone, reference compound]
- IC50 ([8]; Leishmania major): 5600 nM
- Inhibition of DHODH [10]: 7%
- IC50 ([3]; Plasmodium falciparum, 3D7, Table 2, read-out: IC50, activity against Plasmodium falciparum 3D7): 40000 nM
- solubility at 24 h ([4]; 0.3 M phosphate buffer, pH 7.4, aqueous buffer, thermodynamic from solid): < 50 µg/mL
- antibacterial effect [15]: no antibacterial effect at all

SMILES: COc1ccc(-c2ccccc2)cc1/C=C/C(=O)c1ccc(CCN(C)C)cc1 [A117, (E)-1-[4-(2-Dimethylamino-ethyl)-phenyl]-3-(4-methoxy-biphenyl-3-yl)-propenone]
- MIC, C: Staphylococcus intermedius #2357 [5]: 9.4 µM (≈ 3.62 µg/mL)
- MIC, D: Enterococcus faecalis ATCC29212 [6]: 37.5 µM (≈ 14.5 µg/mL)
- MIC, F: Streptococcus pneumoniae #998 [7]: 37.5 µM (≈ 14.5 µg/mL)
- MIC, G: Eschericia coli ATCC25922 [16]: 150 µM (≈ 57.8 µg/mL)
- MIC, B: Staphylococcus aureus ATCC33591 [9]: 9.4 µM (≈ 3.62 µg/mL)
- MIC, A: Staphylococcus aureus ATCC29213 [11]: 9.4 µM (≈ 3.62 µg/mL)
- MIC, E: Enterococcus faecium #17501 [12]: 37.5 µM (≈ 14.5 µg/mL)
- MIC, H: Eschericia coli ESS [2]: 9.4 µM (≈ 3.62 µg/mL)

SMILES: C=CC(C)(C)c1ccc(OC)c(/C=C/C(=O)c2ccccc2CN(C)C)c1 [A034, (E)-3-[5-(1,1-Dimethyl-allyl)-2-methoxy-phenyl]-1-(2-dimethylaminomethyl-phenyl)-propenone]
- IC50 [8]: 900 nM
- activity against anaerobic bacteria [17]: activity against all microorganisms within the test panel

SMILES: CCN(CC)Cc1cccc(C(=O)/C=C/c2ccc(Cl)cc2Cl)c1 [A063, (E)-3-(2,4-Dichloro-phenyl)-1-(3-diethylaminomethyl-phenyl)-propenone]
- IC50 [8]: 900 nM
- activity against anaerobic bacteria [17]: activity against all microorganisms within the test panel

SMILES: CN(C)Cc1ccccc1C(=O)/C=C/c1ccc(Cl)cc1Cl [A027, (E)-3-(2,4-Dichloro-phenyl)-1-(2-dimethylaminomethyl-phenyl)-propenone]
- parasitaemia, multiple intra venous administrations [18]: significant decrease in the parasitaemia
- parasitaemia, multiple oral administrations [19]: significant decrease in the parasitaemia

SMILES: CN(C)CCCNCc1cccc(C(=O)/C=C/c2ccc(Cl)cc2Cl)c1 [A022, (E)-3-(2,4-Dichloro-phenyl)-1-{3-[(3-dimethylamino-propylamino)-methyl]-phenyl}-propenone]
- MIC, C: Staphylococcus intermedius #2357 [5]: 37.5 µM (≈ 14.7 µg/mL)
- MIC, D: Enterococcus faecalis ATCC29212 [6]: 18.8 µM (≈ 7.36 µg/mL)
- MIC, F: Streptococcus pneumoniae #998 [7]: 18.8 µM (≈ 7.36 µg/mL)
- MIC, G: Eschericia coli ATCC25922 [16]: 18.8 µM (≈ 7.36 µg/mL)
- MIC, B: Staphylococcus aureus ATCC33591 [9]: 37.5 µM (≈ 14.7 µg/mL)
- Inhibition of DHODH [10]: 28%
- MIC, A: Staphylococcus aureus ATCC29213 [11]: 37.5 µM (≈ 14.7 µg/mL)
- MIC, E: Enterococcus faecium #17501 [12]: 18.8 µM (≈ 7.36 µg/mL)
- MIC, H: Eschericia coli ESS [2]: 18.8 µM (≈ 7.36 µg/mL)

SMILES: CN(Cc1ccccc1C(=O)/C=C/c1ccc(Cl)cc1Cl)C(C)(C)C [A035, (E)-1-{2-[(tert-Butyl-methyl-amino)-methyl]-phenyl}-3-(2,4-dichloro-phenyl)-propenone]
- Inhibition of DHODH [10]: 26%
- IC50 [3, 23]: 900 nM

SMILES: O=C(/C=C/c1ccc(Cl)cc1Cl)c1ccccc1CN1CCNCC1 [A048, (E)-3-(2,4-Dichloro-phenyl)-1-(2-piperazin-1-ylmethyl-phenyl)-propenone]
- bioavailability ([14]; mice): 34%

SMILES: CN(C)CCN(C)Cc1ccccc1C(=O)/C=C/c1ccc(Cl)cc1Cl [A038, (E)-3-(2,4-Dichloro-phenyl)-1-(2-{[(2-dimethylamino-ethyl)-methyl-amino]-methyl}-phenyl)-propenone]
- IC50 [8]: 800 nM
- Inhibition of DHODH [10]: 22%
- activity against anaerobic bacteria [17]: activity against all microorganisms within the test panel

SMILES: CCCCN(CCCC)c1ccc(/C=C/C(=O)c2cccc(CN(C)C)c2)cc1 [A019, (E)-3-(4-Dibutylamino-phenyl)-1-(3-dimethylaminomethyl-phenyl)-propenone]
- MIC, C: Staphylococcus intermedius #2357 [5]: 9.4 µM (≈ 3.69 µg/mL)
- MIC, D: Enterococcus faecalis ATCC29212 [6]: 9.4 µM (≈ 3.69 µg/mL)
- MIC, F: Streptococcus pneumoniae #998 [7]: 18.8 µM (≈ 7.38 µg/mL)
- bactericidal or bacteriostatic action (time-kill curve) [1]: bactericidal
- MIC [1]: 9.4 µM (≈ 3.69 µg/mL)
- dependence of the bactericidal action ([1]; time-kill curve): primarily dependent on incubation time
- MIC, B: Staphylococcus aureus ATCC33591 [9]: 9.4 µM (≈ 3.69 µg/mL)
- MIC, A: Staphylococcus aureus ATCC29213 [11]: 9.4 µM (≈ 3.69 µg/mL)
- MIC, E: Enterococcus faecium #17501 [12]: 9.4 µM (≈ 3.69 µg/mL)
- Metabolic turn-over (rat) in vitro [13]: 5%
- MIC, H: Eschericia coli ESS [2]: 18.8 µM (≈ 7.38 µg/mL)
- activity against the ESS strain of E. coli [2]: considerable activity
- potency against Gram-positive pathogens in comparison with Licochalcone A ([15]; Gram-positive pathogens): increased potency

SMILES: COc1ccc(-c2ccccc2)cc1/C=C/C(=O)c1cccc(CN(C)C)c1 [A100, (E)-1-(3-Dimethylaminomethyl-phenyl)-3-(4-methoxy-biphenyl-3-yl)-propenone]
- IC50 [8]: 200 nM

SMILES: CCN(CC)CCCC(C)Nc1ccnc2cc(Cl)ccc12 (stereo not shown) [Chloroquine]
- IC50 [20]: > 1560 nM
- IC50 [21]: 1090 nM
- IC50 [22]: 1000 nM
- IC50 ([3]; Plasmodium falciparum, 3D7, read-out: Plasmodium falciparum IC50, 3D7(Cq-sen)): 130 nM
